From PMC10424673 (Journal of Medicinal Chemistry, 2023)
Where a SMILES comes first, the peptide text is derived from it. [ ]: non-standard residue; d: D form. The star is where a group is joined. NHNH2 = NN*

Legend:
[1] = target: T1, hGLP-2R (Homo sapiens, UniProt O95838); assay: HTRF cAMP assay in GLP-2R-expressing HEK293 cells; type: cell-based
T1 construct: expressed in transfected cells
T1 sequence (O95838 1-553): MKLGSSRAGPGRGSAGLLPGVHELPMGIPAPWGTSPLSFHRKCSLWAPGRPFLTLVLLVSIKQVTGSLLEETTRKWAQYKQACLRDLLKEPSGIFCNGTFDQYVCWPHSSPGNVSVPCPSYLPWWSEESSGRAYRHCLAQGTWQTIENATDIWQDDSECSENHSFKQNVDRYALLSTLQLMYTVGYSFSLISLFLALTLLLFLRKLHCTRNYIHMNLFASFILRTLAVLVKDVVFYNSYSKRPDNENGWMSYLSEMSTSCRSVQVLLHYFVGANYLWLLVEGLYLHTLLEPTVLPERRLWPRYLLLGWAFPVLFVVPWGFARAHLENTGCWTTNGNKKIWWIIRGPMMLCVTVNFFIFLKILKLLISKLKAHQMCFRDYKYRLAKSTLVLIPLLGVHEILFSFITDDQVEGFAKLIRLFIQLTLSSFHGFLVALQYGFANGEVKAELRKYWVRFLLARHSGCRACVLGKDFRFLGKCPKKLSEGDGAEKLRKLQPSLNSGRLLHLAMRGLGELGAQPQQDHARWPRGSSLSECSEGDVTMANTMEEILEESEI

[2] = test system: GFP under CREB in HEK293 cells stably expressing hGLP-2R; assay: Western blot of GFP expression under control of CREB in HEK293 cells stably expressing hGLP-2R; type: cell-based, human; details: 10 μM peptide, after 36 hours of incubation, mean ± sd, n = 3
From the text: We then investigated the downstream effects of stimulating GLP-2R with the D-GLP-2 analogues to study the D-peptide designs’ effects on GLP-2R. We wanted to determine whether activating GLP-2R with D-GLP-2 analogues would promote GFP expression in HEK293 cells containing a GFP gene under the control of cAMP response element binding protein (CREB) and AKT phosphorylation. We also checked the beta-actin expression in all the treatments as loading controls. Of relevance, all peptides induced a similar GFP expression under the CREB, reaching saturation between 24 and 48 h of incubation (Figures 5E,F, S1A, Table S3). We also found a concentration-dependent increase in GFP expression in response to all the peptides’ stimulation (Figure S1B).
The cells were lysed with a lysis buffer 50 mM Tris-HCl pH 7.4, 1% Nonidet P-40, 150 mM NaCl, 1 mM ethylenediaminetetraacetic acid, 10 mM Na3VO4, 10 mM sodium pyrophosphate, and 25 mM NaF, 1× protease inhibitor mixture (Sigma) for 30 min at 4 °C. […] The transferred samples were immunoblotted with primary antibodies, followed by incubation with horseradish peroxidase-conjugated secondary antibodies (Santa Cruz Biotechnology) and detected using enhanced chemiluminescence (GE Healthcare).

[3] = target: proteinase K (Parengyodontium album, UniProt P06873); details: 20 μM peptide, ProtK 100 μg/mL, 10 mM Tris-base, 10 mM NaCl, pH 7.4, 5 μM CaCl2, 37 °C, SDS-PAGE Coomassie densitometry normalised to T0, repeated three times
Chain of proteinase K (P06873 106-384): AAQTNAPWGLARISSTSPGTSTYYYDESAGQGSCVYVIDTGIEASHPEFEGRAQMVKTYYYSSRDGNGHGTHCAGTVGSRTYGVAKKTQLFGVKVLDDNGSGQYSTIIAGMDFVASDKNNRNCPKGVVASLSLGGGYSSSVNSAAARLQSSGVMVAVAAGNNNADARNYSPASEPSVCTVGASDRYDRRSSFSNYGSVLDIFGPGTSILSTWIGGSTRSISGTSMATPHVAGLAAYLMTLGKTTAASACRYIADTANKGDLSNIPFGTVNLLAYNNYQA

[4] = target: DPP-IV (Homo sapiens, UniProt P27487); details: 20 μM peptide, DPP-IV 50 μg/mL, 100 mM Tris pH 8.0, 2.5 h, SDS-PAGE densitometry and mass spectrometry
Chain of DPP-IV (P27487 whole entry, species assumed): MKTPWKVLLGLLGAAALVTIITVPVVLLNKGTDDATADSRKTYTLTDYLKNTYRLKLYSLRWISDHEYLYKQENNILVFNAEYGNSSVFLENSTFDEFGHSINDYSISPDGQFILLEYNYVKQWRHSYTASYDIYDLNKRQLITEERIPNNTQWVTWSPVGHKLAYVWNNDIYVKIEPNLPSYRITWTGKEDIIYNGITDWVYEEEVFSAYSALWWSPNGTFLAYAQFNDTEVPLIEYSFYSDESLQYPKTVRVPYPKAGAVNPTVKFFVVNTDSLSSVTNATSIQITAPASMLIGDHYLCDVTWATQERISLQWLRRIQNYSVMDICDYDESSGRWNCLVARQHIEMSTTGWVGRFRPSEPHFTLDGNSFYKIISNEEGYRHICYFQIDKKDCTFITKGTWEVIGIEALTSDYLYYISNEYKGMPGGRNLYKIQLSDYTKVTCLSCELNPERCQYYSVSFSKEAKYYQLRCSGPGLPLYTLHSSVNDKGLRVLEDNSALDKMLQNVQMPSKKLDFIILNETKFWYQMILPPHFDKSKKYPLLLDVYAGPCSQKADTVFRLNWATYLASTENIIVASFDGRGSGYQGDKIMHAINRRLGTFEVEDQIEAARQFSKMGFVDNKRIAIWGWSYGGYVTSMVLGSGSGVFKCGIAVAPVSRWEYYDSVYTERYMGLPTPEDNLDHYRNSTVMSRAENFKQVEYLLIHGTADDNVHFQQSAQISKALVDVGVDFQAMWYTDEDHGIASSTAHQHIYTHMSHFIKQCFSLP

[5] = target: T2, GLP-2R (Homo sapiens, UniProt O95838); design: method as in PMID 36780786; details: cited from earlier work
T2 construct: host or cells: CHO-K1 PathHunter reporter cells
T2 sequence (P32121 whole entry partner, one chain of several): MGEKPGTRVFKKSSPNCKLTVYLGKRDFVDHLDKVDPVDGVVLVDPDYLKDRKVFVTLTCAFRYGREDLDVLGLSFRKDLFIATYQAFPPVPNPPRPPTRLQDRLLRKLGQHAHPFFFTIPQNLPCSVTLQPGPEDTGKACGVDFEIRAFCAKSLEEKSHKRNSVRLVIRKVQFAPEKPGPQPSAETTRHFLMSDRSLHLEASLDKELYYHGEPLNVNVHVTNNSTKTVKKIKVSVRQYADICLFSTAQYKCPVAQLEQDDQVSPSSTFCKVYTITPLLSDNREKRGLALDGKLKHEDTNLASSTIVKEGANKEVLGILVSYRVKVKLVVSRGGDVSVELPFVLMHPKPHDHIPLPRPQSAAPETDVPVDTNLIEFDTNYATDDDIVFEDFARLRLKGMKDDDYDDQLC

[6] = target: T2, GLP-2R; design: method as in 2 sources, one per row (each row's own in cited_ref): ref 28 (Gadgaard et al.) ||| ref 28 = [28]; PMID 36780786; doi:10.1016/j.biopha.2023.114383; Gadgaard S.; Windeløv J. A.; Schiellerup S. P.; Holst J. J.; Hartmann B.; Rosenkilde M. M. Long-Acting Agonists of Human and Rodent Glp-2 Receptors for Studies of the Physiology and Pharmacologic; details: cited from earlier work

CC[C@@H](C)[C@@H](NC(C)=O)C(=O)N[C@H](CCCCN)C(=O)N[C@H](C)C(=O)N[C@H](CCC(N)=O)C(=O)N[C@H](Cc1c[nH]c2ccccc12)C(=O)N[C@H](CC(C)C)C(=O)N[C@H](C)C(=O)N[C@H](C)C(=O)N[C@H](CCC(=O)O)C(=O)N[C@H](Cc1ccccc1)C(=O)N[C@@H](C(=O)N[C@H](CCC(N)=O)C(=O)N[C@H](C)C(=O)N[C@@H](C(=O)N[C@H](C)C(=O)N[C@H](C)C(=O)N[C@@H](C(=O)N[C@H](CC(C)C)C(=O)N[C@H](C)C(=O)N[C@H](CCSC)C(=O)N[C@H](CC(C)C)C(=O)N[C@H](CCCNC(=N)N)C(=O)N[C@H](CC(N)=O)C(=O)N[C@H](CC(N)=O)C(=O)N[C@H](CCC(N)=O)C(=O)N[C@H](Cc1ccccc1)C(=O)N[C@H](CCC(=O)O)C(=O)N[C@H](Cc1ccccc1)C(=O)N[C@H](C)C(=O)NCC(=O)N[C@@H](C(=O)N[C@H](C)C(=O)N[C@H](Cc1c[nH]cn1)C(=O)NN)C(C)C)C(C)C)C(C)C)[C@H](C)CC [D-GLP-2 E33A hydrazide] (Ac-[dI][dK][dA][dQ][dW][dL][dA][dA][dE][dF][dI][dQ][dA][dV][dA][dA][dV][dL][dA][dM][dL][dR][dN][dN][dQ][dF][dE][dF][dA]G[dV][dA][dH]-NHNH2)
EC50 [1]: 226 nM
improvement of GLP-2R activation compared to D-GLP-2 ([1]; ratio of cAMP EC50 values, compared to D-GLP-2): 6.26 fold
GFP relative expression level, relative to L-GLP-2-treated cells [2]: 1.08 ± 0.14

CC[C@@H](C)[C@@H](NC(C)=O)C(=O)N[C@H](CCCCN)C(=O)N[C@H](C)C(=O)N[C@H](CCC(N)=O)C(=O)N[C@H](Cc1c[nH]c2ccccc12)C(=O)N[C@H](CC(C)C)C(=O)N[C@H](C)C(=O)N[C@H](C)C(=O)N[C@H](CCC(=O)O)C(=O)N[C@H](Cc1ccccc1)C(=O)N[C@@H](C(=O)N[C@H](CCC(N)=O)C(=O)N[C@H](C)C(=O)N[C@@H](C(=O)N[C@H](C)C(=O)N[C@H](C)C(=O)N[C@@H](C(=O)N[C@H](CC(C)C)C(=O)N[C@H](C)C(=O)N[C@H](CCSC)C(=O)N[C@H](CC(C)C)C(=O)N[C@H](CCCNC(=N)N)C(=O)N[C@H](CC(N)=O)C(=O)N[C@H](CC(N)=O)C(=O)N[C@H](CCC(N)=O)C(=O)N[C@H](Cc1ccccc1)C(=O)N[C@H](CCC(=O)O)C(=O)N[C@H](Cc1ccccc1)C(=O)N[C@H](C)C(=O)NCC(=O)N[C@@H](C(=O)N[C@H](CCC(=O)O)C(=O)N[C@H](Cc1c[nH]cn1)C(N)=O)C(C)C)C(C)C)C(C)C)[C@H](C)CC [D-GLP-2] (Ac-[dI][dK][dA][dQ][dW][dL][dA][dA][dE][dF][dI][dQ][dA][dV][dA][dA][dV][dL][dA][dM][dL][dR][dN][dN][dQ][dF][dE][dF][dA]G[dV][dE][dH]-NH2)
EC50 [1]: 1420 nM
times less potent (weaker EC50) than native L-GLP-2 ([1]; ratio of cAMP EC50 to that of GLP-2): 35 times

CC[C@H](C)[C@H](NC(=O)[C@H](Cc1ccccc1)NC(=O)[C@H](CC(=O)O)NC(=O)[C@H](CCCNC(=N)N)NC(=O)[C@H](C)NC(=O)[C@H](C)NC(=O)[C@H](CC(C)C)NC(=O)[C@H](CC(N)=O)NC(=O)[C@H](CC(=O)O)NC(=O)[C@H](CC(C)C)NC(=O)[C@@H](NC(=O)[C@@H](NC(=O)[C@H](CC(N)=O)NC(=O)[C@H](CCSC)NC(=O)[C@H](CCC(=O)O)NC(=O)[C@H](CC(=O)O)NC(=O)[C@H](CO)NC(=O)[C@H](Cc1ccccc1)NC(=O)[C@H](CO)NC(=O)CNC(=O)[C@H](CC(=O)O)NC(=O)CNC(=O)[C@@H](N)Cc1c[nH]cn1)[C@@H](C)O)[C@@H](C)CC)C(=O)N[C@@H](CC(N)=O)C(=O)N[C@@H](Cc1c[nH]c2ccccc12)C(=O)N[C@@H](CC(C)C)C(=O)N[C@H](C(=O)N[C@@H](CCC(N)=O)C(=O)N[C@H](C(=O)N[C@@H](CCCCN)C(=O)N[C@H](C(=O)N[C@H](C(=O)N[C@@H](CC(=O)O)C(=O)O)[C@@H](C)O)[C@@H](C)CC)[C@@H](C)O)[C@@H](C)CC [L-GLP-2-2G]
peptide remaining after proteinase K exposure, 2 h [3]: almost complete loss
peptide remaining after incubation with DPP-IV [4]: remained intact

GLP-2_3–33: the product of DPP-IV inactivation of GLP-2_1–33 (DGSFSDEMNTILDNLAARDFINWLIQTKITD; Glucagon-like peptide 2; UniProt P01275 148-178, looked up, fragment)
β-arrestin 1 and 2 recruitment [5]: could not recruit β-arrestin 1 and 2
mode of action at GLP-2R [6]: competitive antagonist of GLP-2_1–33
efficacy at GLP-2R ([6]; ref 28 (Gadgaard et al.)): 11%
